Experiment [1] has as its system core clock genes in PER2::LucSV cells. In words: Real-time qPCR and Western blot of clock genes in PER2::LucSV cells. In kind it is cell-based, mouse. How it is done:
For qPCR analysis, cells were split into 6-well plates at an initial density of 3×10^5 cells and incubated for 2-4 days before synchronization (5 μM Fsk or 100 nM Dex) followed by compound treatment. RNA samples were prepared by using PureXtract RNAsol for cDNA synthesis and real-time PCR (GenDEPOT) was performed with a MaxPro3000 Thermocycler (Agilent). qPCR primers used are listed in the table shown in Example 4. Whole cell lysates from cells similarly grown and treated in 60 mm dishes and tissue extracts were prepared as described (Yoo et al., 2013) and subjected to Western blot analysis (GenDEPOT). Antibodies for REV-ERBα (Pierce and Cell Signaling), PER1 (Lee et al., 2001) and other clock proteins (Yoo et al., 2013) were used.

In experiment [2] the test system is Cps1 gene. Conditions: Clock^Δ19/Δ19 mutant mice; cited from earlier work.

With `COc1ccc(-c2cc(=O)c3c(OC)c(OC)c(OC)c(OC)c3o2)cc1OC` [nobiletin], in experiment [1], the CRY1 protein abundance entry was “slight trend of greater protein abundance”; the CRY1 transcript level entry is recorded as “markedly reduced transcript level”; the Pert transcript levels entry was “moderately altered and reduced at CT20”; the “expression of other core clock genes” value is reported as “altered”. Also, the PER2 proteins entry in experiment [1] (Western blot) is reported as “accumulate to greater levels”. Moreover, the “transcriptional induction of the Cps1 gene” value in experiment [2] is reported as “impaired”.

Values taken from patent US20180296523A1, “USE OF POLYMETHOXYLATED FLAVONES TO AMELIORATE CIRCADIAN RHYTHM DISORDERS” (THE BOARD OF REGENTS OF THE UNIVERSITY OF TEXAS SY, priority 2017, published 2018).
